Measurements as given in patent US20260325538A1, “THERAPY” (priority 2023, published 2026).

System: Klebsiella pneumoniae ST147 (NDM-1 and KPC-2)
Assay: Checkerboard MIC, fixed ratio of sBLI to antibiotic (Examples 7-10)
Type: cell-based
Conditions: caMHB 29.4 μM Zn2+
Text: The antibiotics and serine β-lactamase-inhibitors (sBLIs) were purchased from the following suppliers: Ceftazidime (CAZ): Sigma-Aldrich; Cefepime (FEP): Sigma-Aldrich; Cefpodoxime (CEFP): MedChemExpress; Sulbactam (SUL): Sigma-Aldrich Avibactam (AVI): Biosynth; Vaborbactam (VAB): ABCR; Tazobactam (TAZ): Sigma-Aldrich; Taniborbactam (TAN): Sigma-Aldrich.
In each of Examples 3-23, the compound of Example 26 of WO 2018/033719 was employed as the zinc chelator. The following abbreviations are used in these examples: sBLI means serine-β-lactamase inhibitor; CFU means colony-forming unit, which is a group of microbes that grows from a single cell on a petri plate; DMSO means dimethyl sulfoxide; MHB means Mueller-Hinton broth; caMHB means cation-adjusted Mueller-Hinton broth; MIC means minimum inhibitory concentration—the lower the MIC, the more efficient the combination against the respective bacterial strain.
General Protocol Used in Examples 3-10 Employing a Fixed Ratio of sBLI to Antibiotic within Each Experiment:
Antimicrobial susceptibility testing (AST) by broth microdilution (MIC determination) was performed according to The European Committee on Antimicrobial Susceptibility Testing (EUCAST) guidelines (see Reading guide for broth microdilution Version 5.0, 2024: https://www.eucast.org).
Sterile clear round bottom polystyrene (non-treated) 96-well microplates (Corning 3788) were used for making serial two-fold dilutions of the antibiotic and the serine sBLI in cation-adjusted Mueller Hinton II broth (caMHB; Thermo Scientific, T3462, containing 29.4 μM Zn^2+), across the columns of the microtiter plate ([…]; columns 1-12). The checkerboard plates were all made by keeping the sBLI at a fixed ratio relative to antibiotic (absolute concentrations of each, in μg/mL) to all wells containing sample in each plate. Additionally, a set of samples were included in each test plate, where the zinc chelator was added, at various fixed concentrations, of 16 μg/mL, 8 μg/mL and/or 4 μg/mL (as specified in each Example). All sample wells contained growth medium (caMHB), and inoculated bacteria at a final inoculum between 3-7×10^5 CFU/mL. […] Synergy for the triple combination (antibiotic, sBLI, and zinc chelator) was defined as when the MIC in rows containing the zinc chelator in combination with antibiotic and sBLI (triple combination), was lower than for rows containing antibiotic and sBLI (double combination; no zinc chelator).
(§1) Two technical replicates were performed for each sample. An X in rows 1-8 in the table indicates bacterial growth, while a blank cell indicates no growth. Concentrations (μg/mL) of CAZ are given in row 0a). Concentrations (μg/mL) of AVI are given in row 0b. The zinc chelator was added in fixed concentrations, at 16 μg/mL in rows 3 and 4, at 8 μg/mL in rows 5 and 6, and 4 μg/mL in rows 7 and 8. As a control, the effect of CAZ and AVI (no zinc chelator) was tested (rows 1 and 2). All wells contained bacterial growth medium (caMHB, 29.4 μM Zn^2+) and were inoculated with the test bacterium. The grey cells indicate the CAZ MIC.
as §1, with “FEP” for “CAZ”, “0a.” for “0a).”
Two technical replicates were performed for each sample. An X in rows 1-8 in the table indicates bacterial growth, while a blank cell indicates no growth. Concentrations (μg/mL) of FEP are given in row 0a. Concentrations (μg/mL) of SUL are given in row 0b. […]

Measured: synergy with the zinc chelator

CN(C[C@H](O)[C@@H](O)[C@H](O)[C@H](O)CO)C(=O)c1ccc(CN(Cc2ccccn2)Cc2ccccn2)nc1 [zinc chelator]
Synergy: zinc chelator 4 μg/mL, with FEP and TAZ (fixed ratio) | zinc chelator 8 μg/mL, with CAZ and AVI (fixed ratio) | zinc chelator 8 μg/mL, with FEP and AVI (fixed ratio) | zinc chelator 8 μg/mL, with FEP and SUL (fixed ratio) | zinc chelator 8 μg/mL, with FEP and TAZ (fixed ratio) | zinc chelator 16 μg/mL, with CAZ and AVI (fixed ratio) | zinc chelator 16 μg/mL, with FEP and AVI (fixed ratio) | zinc chelator 16 μg/mL, with FEP and SUL (fixed ratio) | zinc chelator 16 μg/mL, with FEP and TAZ (fixed ratio)
